Entries after “also recorded” stand apart in the source; their conditions may differ. Where two headings read alike, the source gives them in different places.
Legend:
A549 cells [1] = conditions: human, 24 h
A549 cells [2] = assay: Cell viability (cytotoxicity) in A549 cells; conditions: A549
Sendai Virus 52 = assay: Sendai virus replication in A549 cells; assay type: cell-based; conditions: A3 10 μM, 24 h
[3] = test system: Vesicular Stomatitis virus; assay type: cell-based; conditions: A549
Sindbis virus = Sindbis virus replication in A549 cells; assay type: cell-based; conditions: 10 μM A3 or less
Hepatitis C virus = assay type: cell-based; conditions: 10 μM A3 or less
Vaccinia Virus (NYVAC) = assay type: cell-based; conditions: 10 μM A3 or less
[4] = test system: human adenovirus 5 (hAd5); assay type: cell-based; conditions: 10 μM A3 or less
HIV-1 (NL4-3) = assay: microbe, parasite or virus in culture; assay type: cell-based
[5] = test system: influenza virus polymerase (PB1, PB2, PA, NP); assay type: cell-based, influenza A/WSN/33 virus; conditions: for inhibition of viral RNA polymerase activity: mini-genome reporter construct
influenza virus [6] = assay: Viral entry assay, influenza virus; assay type: cell-based; conditions: viral entry assays
[7] = test system: influenza A/PR/8/34 virus v-, c-, and mRNA (NA segment); conditions: concentration of 2 μM
[8] = test system: influenza viral proteins (NP, M1, and M2); assay type: cell-based, influenza A/WSN/33 virus; conditions: A549; A/WSN/33; in the presence of A3
influenza virus [9] = assay type: cell-based; conditions: primary screen
influenza A/WSN/33 virus = assay: Plaque-reduction assays with influenza A/WSN/33 virus in cell lines of different species, with or without pyrimidine supplements
[10] = test system: cellular gene expression (Renilla luciferase)
cellular 5S rRNA = conditions: concentration of 2 μM
in vitro [11] = conditions: mouse
in vitro [12] = conditions: human
[13] = Cell viability (cytotoxicity) in A549 cells; conditions: human, A549 cells
[14] = target: Human dihydroorotate dehydrogenase (DHODH) (Homo sapiens, UniProt Q02127); assay: In vitro colorimetric DHODH assay (DCIP reduction); conditions: final concentration of 10 μM; 60 mins
in vitro [15] = conditions: human; remark: listed apart in the source
Newcastle Disease virus = assay type: cell-based; conditions: concentration of 11.2 μM; NDV/B1; A549
VSV = assay type: cell-based, Vesicular Stomatitis virus; conditions: viral entry assays
retrovirus MLV = assay: Viral entry assay, retrovirus MLV; assay type: cell-based; conditions: viral entry assays
[16] = read-out: CC50 (A549), 24 hour period, Table 3

Sequence of Human dihydroorotate dehydrogenase (DHODH) (Q02127 whole entry): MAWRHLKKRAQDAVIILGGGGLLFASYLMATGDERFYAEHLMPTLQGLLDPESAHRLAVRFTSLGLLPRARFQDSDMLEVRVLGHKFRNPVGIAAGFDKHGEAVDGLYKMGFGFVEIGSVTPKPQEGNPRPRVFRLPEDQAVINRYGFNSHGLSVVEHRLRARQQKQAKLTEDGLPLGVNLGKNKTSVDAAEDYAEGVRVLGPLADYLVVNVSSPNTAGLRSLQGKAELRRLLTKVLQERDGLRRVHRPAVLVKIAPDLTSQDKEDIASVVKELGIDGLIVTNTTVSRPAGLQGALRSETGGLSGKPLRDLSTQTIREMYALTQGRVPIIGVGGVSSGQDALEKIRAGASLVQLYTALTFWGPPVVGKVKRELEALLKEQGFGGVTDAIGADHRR

With `CCN(CC)S(=O)(=O)c1ccc(-c2nnc(SCC(=O)N3CCCC3)o2)cc1` [Compound A3-1, N,N-diethyl-4-(5-(2-oxo-2-(pyrrolidin-1-yl)ethylthio)-1,3,4-oxadiazol-2-yl)benzenesulfonamide] the “CC10 (A549)” value (A549 cells [1]) was 17.3 µM.

For `CCN(CC)C(=O)CSc1nnc(-c2ccc3[nH]c(C)c(C)c3c2)o1` [Compound A3-2, 2-(5-(2,3-dimethyl-1H-indol-5-yl)-1,3,4-oxadiazol-2-ylthio)-N,N-diethylacetamide], the “CC10 (A549)” value (A549 cells [1]) was 29 µM.

For `Cc1[nH]c2ccc(-c3nnc(SCC(=O)N4CCc5ccccc54)o3)cc2c1C` [Compound A3-3, 2-(5-(2,3-dimethyl-1H-indol-5-yl)-1,3,4-oxadiazol-2-ylthio)-1-(indolin-1-yl)ethanone], the “CC10 (A549)” value (A549 cells [1]) was 8.5 µM and the CC50 (A549 cells [2]; [16]) was 65 µM.

In the case of `Cc1[nH]c2ccc(-c3nnc(SCC(=O)N(C(C)C)C(C)C)o3)cc2c1C` [Compound A3-4, 2-(5-(2,3-dimethyl-1H-indol-5-yl)-1,3,4-oxadiazol-2-ylthio)-N,N-diisopropylacetamide], the “CC10 (A549)” value (A549 cells [1]) is reported as 10.7 µM.

In the case of `Cc1[nH]c2ccc(-c3nnc(SCC(=O)N4CCOCC4)o3)cc2c1C` [Compound A3-5, 2-(5-(2,3-dimethyl-1H-indol-5-yl)-1,3,4-oxadiazol-2-ylthio)-1-morpholinoethanone], the “CC10 (A549)” value (A549 cells [1]) is reported as 10.2 µM.

With `Cc1[nH]c2ccc(-c3nnc(SCC(=O)N4CCCCCC4)o3)cc2c1C` [Compound A3-6, 1-(azepan-1-yl)-2-(5-(2,3-dimethyl-1H-indol-5-yl)-1,3,4-oxadiazol-2-ylthio)ethanone] the “CC10 (A549)” value (A549 cells [1]) was 18.2 µM.

In the case of `O=C(CSc1nnc(-c2cc3ccccc3[nH]2)o1)N1CCCC1` [Compound A3-7, 2-(5-(1H-indol-2-yl)-1,3,4-oxadiazol-2-ylthio)-1-(pyrrolidin-1-yl)ethanone], the “CC10 (A549)” value (A549 cells [1]) is reported as 15.2 µM.

With `COc1ccc(-c2nnc(SCC(=O)N3CCCC3)o2)cc1` [Compound A3-8, 2-(5-(4-methoxyphenyl)-1,3,4-oxadiazol-2-ylthio)-1-(pyrrolidin-1-yl)ethanone] the “CC10 (A549)” value (A549 cells [1]) was 11.8 µM.

With `O=C(CSc1nnc(-c2cc3ccccc3o2)o1)N1CCCC1` [Compound A3-9, 2-(5-(benzofuran-2-yl)-1,3,4-oxadiazol-2-ylthio)-1-(pyrrolidin-1-yl)ethanone] the “CC10 (A549)” value (A549 cells [1]) was 10.9 µM.

With `O=C(CSc1nnc(-c2cccnc2)o1)N1CCCC1` [Compound A3-11, 2-(5-(pyridin-3-yl)-1,3,4-oxadiazol-2-ylthio)-1-(pyrrolidin-1-yl)ethanone] the “CC10 (A549)” value (A549 cells [1]) was 32.6 µM.

With `O=C(CSc1nnc(-c2ccncc2)o1)N1CCCC1` [Compound A3-12, 2-(5-(pyridin-4-yl)-1,3,4-oxadiazol-2-ylthio)-1-(pyrrolidin-1-yl)ethanone] the “CC10 (A549)” value (A549 cells [1]) was 11.5 µM.

In the case of `Cc1[nH]c2ccc(-c3nnc(SCC(=O)N4CCCC4)o3)cc2c1C` [Compound A3], the “inhibition of Sendai virus (SV52)” value (Sendai Virus 52) is reported as 3 logs, the “titer of vesicular stomatitis virus decreased” value ([3]; 10 μM A3 or less) is reported as 5 logs and the “inhibition of Sindbis virus” value (Sindbis virus) is reported as 2 logs. The “inhibition of hepatitis C virus” value (Hepatitis C virus) was 2 logs, the “sensitivity of vaccinia virus” value (Vaccinia Virus (NYVAC)) was “sensitive” and the sensitivity of adenovirus [4] was “sensitive”. For the same compound, the “sensitivity of HIV-1” value (HIV-1 (NL4-3); 10 μM A3 or less) was “sensitive”, the IC50 (HIV-1 (NL4-3); Human immunodeficiency virus 1, NL43, TZM-bl, 48 h, read-out: IC50 against HIV-1 (NL4-3)) was 0.205 µM and the “time of addition at which compound remains active” value (HIV-1 (NL4-3); time-of-addition, TZM-bl, HIV-1 MOI=0.1, A3 at 1 μM) was at most 12 h after infection. The “inhibition of influenza virus polymerase function” value ([5]; compared with the DMSO control, A3 at its CC10) was 98%, the “inhibition of viral RNA polymerase activity” value ([5]; at 10 μM) was “up to 99%” and the “potency relative to ribavirin” value ([5]; same degree of inhibition by 2 μM A3 as with 100 μM ribavirin) was 50 times. The “viral entry of influenza virus” value (influenza virus [6]) was “did not inhibit viral entry”, the “production of all three viral RNA species (v-, c-, and mRNA)” value [7] was “fully inhibit” and the “levels of viral proteins” value [8] was “reduced levels of viral proteins”. For the same compound, the “luminescence signal of influenza virus inducible firefly luciferase reporter” value (influenza virus [9]) was “no luminescence detectable”, the “inhibition of viral replication” value (influenza A/WSN/33 virus) was “strong inhibition; also recorded: complete inhibition” and the “inhibition of viral replication” value (influenza A/WSN/33 virus; baby hamster kidney (BHK) cells and pig kidney (PK-15) cells, A3 10 μM) was “partially inhibited”. For the same compound, the “effect of orotic acid on the inhibition by A3” value (influenza A/WSN/33 virus; both A549 and MDCK cells) was “reverse the inhibition”, the “effect on viral replication” value (influenza A/WSN/33 virus; chicken fibroblast (DF-1) cells, A3 10 μM) was “no effect” and the “CC10 (A549)” value (A549 cells [1]) was 38 µM. The “cellular gene expression as monitored by Renilla luciferase activity” value ([10]; A3 at its CC10) was “without affecting cellular gene expression”, the “overall host cell replication machinery (renilla luciferase control plasmid expression)” value ([10]; all A3 concentrations (0.4-30 μM)) was “not affected” and the “levels of cellular 5S rRNA” value (cellular 5S rRNA) was “without decreasing levels”. The CC50 (in vitro [11]) was over 100 µM, the CC50 (in vitro [12]) was over 100 µM and the CC50 at 24 h [13] was 268 µM. The “DHODH activity in vitro” value [14] was “Inhibits DHODH Activity”.

With `CN(Cc1ccccc1)c1nc(-c2ccc([N+](=O)[O-])cc2)cs1` [Compound A35-1] the “CC10 (A549)” value (A549 cells [1]) was 10.8 µM.

With `CN(c1nc(-c2ccccc2)cs1)C1CCS(=O)(=O)C1` (stereo not shown) [Compound A35-2] the “CC10 (A549)” value (A549 cells [1]) was 12.2 µM.

For `Nc1nc(-c2ccc(Cl)cc2)cs1` [Compound A35-3], the “CC10 (A549)” value (A549 cells [1]) was 11.4 µM.

With `CN(c1ccc(O)cc1)c1nc(-c2ccc(Cl)cc2)cs1` [Compound A35-4] the “CC10 (A549)” value (A549 cells [1]) was 6 µM and the CC50 (A549 cells [2]; [16]) was 30 µM.

In the case of `CN(C)c1nc(-c2ccc(Br)cc2)cs1` [Compound A35-5], the “CC10 (A549)” value (A549 cells [1]) is reported as 17.8 µM and the CC50 at 24 h (in vitro [15]) is reported as 242 µM.

With `CN(c1nc(-c2ccc(Br)cc2)cs1)C1CCS(=O)(=O)C1` (stereo not shown) [Compound A35] the “inhibition of NDV” value (Newcastle Disease virus) was “less significant inhibition”, the “inhibition of VSV” value ([3]; concentration of 11.2 μM) was “less significant inhibition” and the “viral entry of influenza virus” value (influenza virus [6]) was “did not affect the entry step”. The “CC10 (A549)” value (A549 cells [1]) was 11.2 µM and the CC50 at 24 h (in vitro [15]) was 110 µM.

In the case of `COc1cc2c(O)c3c(c(-c4ccc5c(c4)OCO5)c2cc1OC)C(=O)OC3` [Compound C2], the “viral entry of influenza virus” value (influenza virus [6]) is reported as “inhibited”, the “entry of VSV” value (VSV) is reported as “inhibited” and the “entry of the retrovirus MLV” value (retrovirus MLV) is reported as “unaffected”. For the same compound, the CC50 (A549 cells [2]) was 131 µM.

For `Cc1oncc1C(=O)Nc1ccc(C(F)(F)F)cc1` [Leflunomide, reference compound], the “effect on influenza virus replication” value (influenza A/WSN/33 virus; A549 and MDCK cells, concentration of 10 μM) was “No inhibition”.

With `NC(=O)c1ncn([C@@H]2O[C@H](CO)[C@@H](O)[C@H]2O)n1` [ribavirin, reference compound] the “inhibition of viral RNA polymerase activity” value ([5]; at 100 μM) was 90%.
